The text below walks through data of ChEMBL document CHEMBL5725713, “5-aminopyrazole-4-carboxamide inhibitors of CDPK1 from T. gondii and C. parvum” (2016).

The target in this experiment is T1, Calmodulin-domain protein kinase 1 (Toxoplasma gondii, UniProt Q9BJF5).
T1 sequence (Q9BJF5 whole entry): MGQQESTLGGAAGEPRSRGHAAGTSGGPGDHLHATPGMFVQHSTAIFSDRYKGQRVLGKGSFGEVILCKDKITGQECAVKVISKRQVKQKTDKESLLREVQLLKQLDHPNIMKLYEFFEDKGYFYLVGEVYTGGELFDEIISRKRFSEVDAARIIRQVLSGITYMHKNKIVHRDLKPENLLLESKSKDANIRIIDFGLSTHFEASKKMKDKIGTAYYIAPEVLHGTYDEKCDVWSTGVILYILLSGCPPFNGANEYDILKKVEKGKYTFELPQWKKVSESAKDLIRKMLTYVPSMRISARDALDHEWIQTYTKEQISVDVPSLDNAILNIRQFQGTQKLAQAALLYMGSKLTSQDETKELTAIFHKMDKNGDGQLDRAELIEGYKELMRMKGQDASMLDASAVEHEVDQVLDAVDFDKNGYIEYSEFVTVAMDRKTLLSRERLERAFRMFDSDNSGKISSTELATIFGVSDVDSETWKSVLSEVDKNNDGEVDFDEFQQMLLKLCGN
The experiment can be described thus: Luminescent Kinase Assay: Inhibition of TgCDPK1 and CpCDPK1 was determined using a luminescent kinase assay which measures ATP depletion in the presence of the Syntide 2 peptide substrate (KinaseGlo). For description of the methods and assays, see WO 2011/094628, incorporated by reference herein.

pIC50: −log10 of the molar value.

As to `CC(C)(C)n1cc(C(N)=O)c(-c2ccc3c(N)n[nH]c3c2)n1`, the pIC50 is 7.40.
